Results from publication PMC2996585 (Journal of medicinal chemistry, 2010).
Entries after “also recorded” stand apart in the source; their conditions may differ. Like-named read-outs stand apart in the source and are kept apart here. Bridges are numbered along the chain shown (N, C = ends). Where no end group is shown, it is not given here.

Biological target: T1, ENaC (Homo sapiens, UniProt P37088)
T1 sequence (P37088 1-669): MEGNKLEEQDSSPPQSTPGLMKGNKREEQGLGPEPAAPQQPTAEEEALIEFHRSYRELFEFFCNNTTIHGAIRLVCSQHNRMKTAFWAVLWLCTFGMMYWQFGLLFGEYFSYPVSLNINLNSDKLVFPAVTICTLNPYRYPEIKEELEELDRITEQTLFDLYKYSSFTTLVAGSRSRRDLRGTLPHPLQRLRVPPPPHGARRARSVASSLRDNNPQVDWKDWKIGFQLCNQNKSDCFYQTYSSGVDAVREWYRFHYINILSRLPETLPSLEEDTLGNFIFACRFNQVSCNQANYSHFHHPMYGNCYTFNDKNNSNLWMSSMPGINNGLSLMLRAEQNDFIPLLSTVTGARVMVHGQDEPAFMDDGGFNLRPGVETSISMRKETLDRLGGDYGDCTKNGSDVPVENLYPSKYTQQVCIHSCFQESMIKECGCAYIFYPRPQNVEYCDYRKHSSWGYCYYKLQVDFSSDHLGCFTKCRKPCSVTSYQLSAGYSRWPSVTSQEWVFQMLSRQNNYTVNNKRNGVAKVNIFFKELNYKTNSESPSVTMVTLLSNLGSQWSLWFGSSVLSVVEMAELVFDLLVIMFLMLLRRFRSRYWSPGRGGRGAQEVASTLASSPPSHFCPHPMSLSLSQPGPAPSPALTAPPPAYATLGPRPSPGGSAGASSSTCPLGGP
T1 sequence (P51168 1-640 partner): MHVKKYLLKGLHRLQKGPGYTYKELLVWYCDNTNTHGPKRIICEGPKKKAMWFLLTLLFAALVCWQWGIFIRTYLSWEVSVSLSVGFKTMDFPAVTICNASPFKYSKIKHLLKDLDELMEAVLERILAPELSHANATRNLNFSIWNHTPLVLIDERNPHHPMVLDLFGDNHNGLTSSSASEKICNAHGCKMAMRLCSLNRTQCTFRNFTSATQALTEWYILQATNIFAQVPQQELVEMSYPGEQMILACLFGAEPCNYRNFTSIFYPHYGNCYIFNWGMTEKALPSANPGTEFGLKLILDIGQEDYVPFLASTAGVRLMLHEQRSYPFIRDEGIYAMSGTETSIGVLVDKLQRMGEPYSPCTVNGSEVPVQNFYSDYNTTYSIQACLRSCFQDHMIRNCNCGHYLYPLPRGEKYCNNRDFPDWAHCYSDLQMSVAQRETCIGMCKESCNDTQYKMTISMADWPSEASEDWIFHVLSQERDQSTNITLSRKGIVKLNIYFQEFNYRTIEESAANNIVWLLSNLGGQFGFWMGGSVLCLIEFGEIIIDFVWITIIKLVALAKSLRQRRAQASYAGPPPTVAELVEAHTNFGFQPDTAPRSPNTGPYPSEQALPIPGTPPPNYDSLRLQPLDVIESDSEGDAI
T1 sequence (P51170 1-649 partner): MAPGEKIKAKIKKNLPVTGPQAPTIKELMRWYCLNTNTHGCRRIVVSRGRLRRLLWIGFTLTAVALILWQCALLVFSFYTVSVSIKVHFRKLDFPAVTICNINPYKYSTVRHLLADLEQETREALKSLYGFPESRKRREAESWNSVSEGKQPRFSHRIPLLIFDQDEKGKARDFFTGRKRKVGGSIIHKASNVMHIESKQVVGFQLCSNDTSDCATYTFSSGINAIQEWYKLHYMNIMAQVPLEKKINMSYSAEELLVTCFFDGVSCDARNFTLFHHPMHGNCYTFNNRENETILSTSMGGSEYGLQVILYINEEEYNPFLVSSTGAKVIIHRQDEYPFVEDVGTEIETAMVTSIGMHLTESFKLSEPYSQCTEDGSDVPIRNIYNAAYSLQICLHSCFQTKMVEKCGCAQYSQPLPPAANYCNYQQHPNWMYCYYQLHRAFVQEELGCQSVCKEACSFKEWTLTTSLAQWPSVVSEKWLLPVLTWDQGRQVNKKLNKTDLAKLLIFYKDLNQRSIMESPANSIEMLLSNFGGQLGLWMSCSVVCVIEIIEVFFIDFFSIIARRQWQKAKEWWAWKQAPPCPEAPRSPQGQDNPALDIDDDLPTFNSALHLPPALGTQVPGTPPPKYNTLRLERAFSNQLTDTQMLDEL
Type: cell-based
Settings: A549 cells, whole-cell patch clamp; for ENaC-activating effect / effect on sodium current (in words): no concentration stated at the place

Substance	Effect on ENaC (concentrations up to 480 nM)	ENaC-activating effect / effect on sodium current (in words)	Effect on ENaC (concentrations up to 240 nM)	ENaC-activating effect / effect on sodium current (in words) (listed as 22)
CQRETPEGAEAKGGC (disulfide 1-15) [compound 2]	no effect	ineffective; also recorded: inactive		
CGQREAPAGAAAKPWYC (disulfide 1-17) [compound 12, reference compound]	no effect	ineffective; also recorded: no effect		
Cyclo(4-aminobutanoic acid-GQRETPEGAEAKPWYG) (head to tail) [compound 7]	no effect	did not affect ENaC; also recorded: inactive	no effect	
Cyclo(6-aminohexanoic acid-GQRETPEGAEAKPWYG) (head to tail) [compound 11]	no effect	inactive	no effect	did not affect ENaC
Cyclo(7-aminoheptanoic acid-GQRETPEGAEAKPWY) (head to tail) [compound 10]	no effect		no effect	
Cyclo(5-aminopentanoic acid-GQRETPEGAEAKPWYG) (head to tail) [compound 6]	no effect	did not affect ENaC; also recorded: inactive	no effect	
